Test results from patent US20230391781A1, “MALT1 MODULATORS AND USES THEREOF” (Rheos Medicines, Inc., priority 2020, published 2023).
≈ marks a conversion by molar mass, not a printed value.

Experiments:
[1] = Thermodynamic Solubility (Ts) Assay in Fasted State Simulated Intestinal Fluid (FaSSIF); type: physicochemical; details: thermodynamic from solid, FaSSIF pH 6.5, shake flask, 25° C., HPLC-UV
Protocol: The solubilities of various compounds of formula (I) were determined using a thermodynamic solubility assay. The thermodynamic solubility assay employed the shake flask method followed by HPLC-UV analysis. The following stepwise procedure was followed:
Samples of no less than 2.0 mg were weighed into the lower chambers of Whatman mini-uniprep vials (catalog number UN203NPUORG) and 450 μL of FaSSIF media (0.056% (w/v) lecithin, 0.161% (w/v) sodium taurocholate, 0.39% (w/v) monobasic potassium phosphate, 0.77% (w/v) potassium chloride, deionized H2O, pH 6.5) was added into each vial.
After the buffer was added, the filter pistons of the mini-uniprep vials were placed to the position of the liquid level to ensure the full contact of buffer and compound with the filter during the incubation.
The samples were then vortexed for 2 minutes, after which they were incubated at 25° C. with shaking (880 rpm) for 24 hours.
The samples were then centrifuged at 4000 rpm (20° C.) for 10 min.
The miniunipreps were then compressed to prepare filtrates, and the test concentration of the compound in the filtrate was determined using HPLC-UV (Waters XBridge C18, 4.6*100 mm column; mobile phase A: 0.1% TFA in H2O; mobile phase B: 0.1% TFA in acetonitrile). At least 5 UV standard solutions (e.g. amiodarone hydrochloride, carbamazepine, dexamethasone) were injected into the HPLC from low to high concentration subsequently followed by testing of the thermodynamic solubility supernatants in duplicate. The solubilities of the tested compounds are given in μg/mL.

[2] = High Throughput Dialysis (HTD) Human Plasma Protein Binding Assay; type: in vitro ADME; details: pooled human plasma, pH 7.4, equilibrium dialysis, 37° C., read-out: Human PPB (% Unbound)
Protocol: Human plasma protein binding of various compounds of formula (I) were evaluated using the equilibrium dialysis method described herein.
The dialysis membrane strips (HTD % a/b, catalog number 1101, HTDialysis LLC, Gales Ferry, CT, USA) were soaked in ultra-pure water at room temperature for approximately 1 hour. Each membrane strip containing 2 membranes was separated and soaked in 20:80 ethanol/water (v/v) for approximately 20 minutes, after which they were ready for use or were stored in the solution at 2-8° C. for up to a month. Prior to the experiment, the membrane was rinsed three times and soaked for 20 minutes in ultra-pure water.
On the day of experiment, the human plasma (BiolVT, catalog number […], sodium heparin or EDTA-K2 anticoagulant, multiple individuals pooled) was thawed by running under cold tap water and centrifuged at 3220 rpm for 5 minutes to remove any clots. The pH value of the resulting plasma was confirmed to be 7.0-8.0.
The test compounds and warfarin control (Stru Chem, catalog number SC-16139) were dissolved in dimethyl sulfoxide (DMSO) to obtain 10 mM stock solutions. DMSO working solutions were prepared at 400 μM. To prepare the loading matrix, the compound working solutions (5 μL) were added in a 1:200 ratio to blank human plasma (995 μL) and mixed thoroughly.
The time zero (T0) samples to be used for recovery determination were prepared as follows: 50 μL aliquots of loading matrix were transferred in triplicate to the sample collection plate. The samples were immediately matched with opposite blank buffer (basic solution (14.2 g/L Na2HPO4 and 8.77 g/L NaCl in deionized water) titrated with acidic solution (15.6 g/L NaH2PO4·2H2O and 8.77 g/L NaCl in deionized water) to pH 7.4±0.1) to obtain a final volume of 100 μL of 1:1 matrix/dialysis buffer (v/v) in each well. 500 μL stop solution (200 ng/mL tolbutamide and 200 ng/mL labetalol in acetonitrile) were added to these TO samples. They were then stored at 2-8° C. for further processing along with other post-dialysis samples.
To load the dialysis device (96-well equilibrium dialysis plate, model 96b, catalog number 1006. HTDialysis LLC, Gales Ferry, CT, USA), an aliquot of 150 μL of the loading matrix was transferred to the donor side of each dialysis well in triplicate, and 150 μL of the dialysis buffer was loaded to the receiver side of the well. The dialysis plate was placed in a humidified incubator at 37° C. with 5% CO2 on a shaking platform that rotated slowly (about 100 rpm) for 4 hours.
At the end of the dialysis, aliquots of 50 μL of the samples were taken from both the buffer side and the matrix side of the dialysis device. These samples were transferred into new 96-well plates (polypropylene, 2.2 mL/well, catalog number DWP-22-96-SQ-U-C-L. Apricot). Each sample was mixed with an equal volume of opposite blank matrix (buffer or matrix) to reach a final volume of 100 μL of 1:1 matrix/dialysis buffer (v/v) in each well. All samples were further processed by adding 500 μL of stop solution containing internal standards. The mixture was vortexed and centrifuged at 4000 rpm for about 20 minutes. An aliquot of 100 μL of supernatant of all the samples was then removed for LC-MS/MS analysis. Test compound concentrations in matrix and buffer samples were expressed as peak area ratios (PAR) of analyte/internal standard (no standard curve).
The single blank samples were prepared by transferring 50 μL of blank matrix to a 96 well plate (polypropylene. 2.2 mL/well, catalog number DWP-22-96-SQ-U-C-L, Apricot) and adding 50 μL of blank PBS buffer to each well. The blank plasma must match the species of plasma used in the plasma side of the well. Then the matrix-matched samples were further processed by adding 500 μL of stop solution containing internal standards, following the same sample processing method as the dialysis samples. […]

full length MALT1 = full length MALT1 (Homo sapiens (Human), UniProt Q9UDY8); test: MALT1 Biochemical Assay; details: 15 nM enzyme, 30 μM peptide substrate Ac-Leu-Arg-Ser-Arg-Rh110-dPro, 30 min pre-incubation, 60 min reaction; mean value if tested more than once
Procedure, shortened: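 Full-length human MALT1 was pre-incubated with compound for 30 min, then cleaved a fluorogenic peptide for 60 min in 50 mM Hepes pH 7.5 with 0.8 M sodium citrate and 1 mM DTT. The reaction was quenched with 10 mM iodoacetate and fluorescence was read at 485/520 nm. IC50 came from four-parameter logistic fits of percent inhibition.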

[3] = tested on: IL-2 in Jurkat (ATCC, clone E6.1) cells stimulated with anti-CD3/28/2; test: Jurkat IL-2 Assay; type: cell-based; details: Homo sapiens; IL-2 inhibition, Jurkat cells, 30 min compound then anti-CD3/28/2 stimulation for 24 hours; mean value if tested more than once; read-out: IC50
Procedure, shortened: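 Jurkat E6.1 T cells in RPMI/10% FBS (below passage 25) were preincubated with a compound dose-response for 30 min, then stimulated with soluble anti-CD3/28/2 for 24 h. IL-2 in the supernatant was measured by MSD immunoassay and viability by CellTiter-Glo luminescence. IC50 came from a 4-parameter fit, reported as ranges, with the mean used where tested repeatedly.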

Chain of full length MALT1 (Q9UDY8 whole entry): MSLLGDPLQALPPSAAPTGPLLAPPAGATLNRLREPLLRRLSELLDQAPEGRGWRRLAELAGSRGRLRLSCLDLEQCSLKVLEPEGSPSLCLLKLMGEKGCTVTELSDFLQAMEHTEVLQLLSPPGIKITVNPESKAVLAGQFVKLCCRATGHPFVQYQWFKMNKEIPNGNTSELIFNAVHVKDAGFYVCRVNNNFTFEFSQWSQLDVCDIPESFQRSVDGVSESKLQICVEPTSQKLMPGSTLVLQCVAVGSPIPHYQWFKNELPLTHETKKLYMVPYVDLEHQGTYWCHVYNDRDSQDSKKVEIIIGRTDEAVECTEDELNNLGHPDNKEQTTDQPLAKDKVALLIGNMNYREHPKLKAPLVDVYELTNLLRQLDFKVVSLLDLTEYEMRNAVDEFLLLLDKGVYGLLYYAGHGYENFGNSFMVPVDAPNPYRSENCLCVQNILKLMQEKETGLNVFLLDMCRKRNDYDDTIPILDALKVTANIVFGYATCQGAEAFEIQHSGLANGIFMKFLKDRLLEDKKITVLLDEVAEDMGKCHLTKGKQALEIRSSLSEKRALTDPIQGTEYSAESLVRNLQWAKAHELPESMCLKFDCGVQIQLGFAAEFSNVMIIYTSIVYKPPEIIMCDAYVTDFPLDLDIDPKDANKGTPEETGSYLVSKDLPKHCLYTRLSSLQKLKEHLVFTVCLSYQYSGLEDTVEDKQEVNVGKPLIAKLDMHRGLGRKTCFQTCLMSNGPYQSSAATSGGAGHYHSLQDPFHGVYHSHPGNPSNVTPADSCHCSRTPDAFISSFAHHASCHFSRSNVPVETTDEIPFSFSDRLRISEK

| Compound | solubility at 24 h [1] | fraction unbound at 4 h, 2 µM [2] | IC50 (full length MALT1) | IC50 [3] |
| --- | --- | --- | --- | --- |
| CO[C@@H](C)c1c(Nc2ccc([C@H](N(C)C(=O)[C@H]3CC[C@H](C(=O)N(C)C)CC3)C(F)(F)F)cc2)cnc2nc(Cl)nn12 [Compound 8.3, (1r,4S)—N1-((S)-1-(4-((2-chloro-7-((S)-1-methoxyethyl)-[1,2,4]triazolo[1,5-a]pyrimidin-6-yl)amino)phenyl)-2,2,2-trifluoroethyl)-N1,N4,N4-trimethylcyclohexane-1,4-dicarboxamide] | 250 to 1750 µg/mL (≈ 419 to 2940 µM) | 0.08 to 0.2 | 100 to 1000 nM | 100 to 1000 nM |
| CO[C@@H](C)c1c(Nc2ccc([C@H](N(C)C(=O)[C@H]3C[C@H](c4nnn[nH]4)C3)C(F)(F)F)cc2)cnc2nc(Cl)nn12 [Compound 9.1, (1r,3S)—N—((S)-1-(4-((2-chloro-7-((S)-1-methoxyethyl)-[1,2,4]triazolo[1,5-a]pyrimidin-6-yl)amino)phenyl)-2,2,2-trifluoroethyl)-N-methyl-3-(1H-tetrazol-5-yl)cyclobutane-1-carboxamide] | > 1750 µg/mL | < 0.08 | < 100 nM | > 1000 nM |
| CO[C@H](C)c1c(Nc2ccc([C@H](N(C)C(=O)C3CCN(C(C)=O)CC3)C(F)(F)F)cc2)cnc2nc(Cl)nn12 [Compound 11.1, 1-acetyl-N—((S)-1-(4-((2-chloro-7-((R)-1-methoxyethyl)-[1,2,4]triazolo[1,5-a]pyrimidin-6-yl)amino)phenyl)-2,2,2-trifluoroethyl)-N-methylpiperidine-4-carboxamide] | 250 to 1750 µg/mL (≈ 440 to 3080 µM) | 0.08 to 0.2 | < 100 nM | 100 to 1000 nM |

Other lines, results leading:

| solubility at 24 h [1] | fraction unbound at 4 h, 2 µM [2] | IC50 (full length MALT1) | IC50 [3] | Compound |
| --- | --- | --- | --- | --- |
| > 1750 µg/mL | 0.08 to 0.2 | 100 to 1000 nM | > 1000 nM | CO[C@@H](C)c1c(Nc2ccc([C@H](N(C)C(=O)[C@H]3CC[C@H](C(=O)O)CC3)C(F)(F)F)cc2)cnc2nc(Cl)nn12 [Compound 7.1, (1S,4r)-4-(((S)-1-(4-((2-chloro-7-((S)-1-methoxyethyl)-[1,2,4]triazolo[1,5-a]pyrimidin-6-yl)amino)phenyl)-2,2,2-trifluoroethyl)(methyl)carbamoyl)cyclohexane-1-carboxylic acid] |
| 250 to 1750 µg/mL (≈ 430 to 3010 µM) | 0.08 to 0.2 | 100 to 1000 nM | 100 to 1000 nM | CNC(=O)[C@H]1CC[C@H](C(=O)N(C)[C@@H](c2ccc(Nc3cnc4nc(Cl)nn4c3[C@H](C)OC)cc2)C(F)(F)F)CC1 [Compound 8.2, (1r,4S)—N1-((S)-1-(4-((2-chloro-7-((S)-1-methoxyethyl)-[1,2,4]triazolo[1,5-a]pyrimidin-6-yl)amino)phenyl)-2,2,2-trifluoroethyl)-N1,N4-dimethylcyclohexane-1,4-dicarboxamide] |
